Data on 2 compounds can be found in patent US9073880B2, “2-(2-phenylethenyl) 1,3-benzodiazepine derivatives useful for the treatment of cancer” (Yissum Research Development Company of the Hebrew …, priority 2010, dated 2015).

By IC50 is commonly meant the point on the concentration scale where inhibition reaches its midpoint. A lower IC50 goes with inhibition by little substance.

For test [1], the system named is human prostate carcinoma PC3 cells. The test is described as follows: Cell proliferation, PC3 (Example 2). The note with it: PC-3, 72 hours, 0.1% DMSO, methylene blue. It is filed as cell-based. The method, then:
(§1) Human ovary cancer A2780 cells lines were seeded at a density of 5000 cells/well, human melanoma A375 cells were plated at a density of 2,500 cells/well, human colon carcinoma HCT15 cells were plated at a density of 3,000 cells/well, human prostate carcinoma PC3 cells were plated at a density of 1,500 cells/well, human breast carcinoma MCF7 cells were plated at a density of 5,000 cells/well, human breast carcinoma MDA MB 468 cells were plated at a density of 6,000 cells/well, human myeloma U266, RPMI8226 and CAG cells were plated at a density of 10,000 cells/well. All cells were plated in 96-well plates in 90 μl growth medium containing 10% FCS, 100 units/ml penicillin and 100 μg/ml streptomycin. Compound 3 was added a day later in […] of 1% DMSO in DDW to obtain final concentrations of 0, 0.1, 0.3, 1, 3, and 10 μM. The final concentration of DMSO (0.1% DMSO) was kept constant in all samples. […] The optical density values were read at 630 nm in ELISA plate reader. Non-adhered cells were exposed to WST-1 reagent for 5 hours following 72 hours treatment with the inhibitors, and optical density values were read at 630 nm in ELISA plate reader. The data was analyzed in Microsoft Excel, using the vehicle control as 100% proliferation. […]

For test [2], the system named is human breast carcinoma MDA MB 468 cells. In words: Cell proliferation, MDA MB 468 (Example 2). It is filed as cell-based. The note with it: MDA-468, breast cancer, 72 hours, 0.1% DMSO. The method, then: as §1
In test [3] the test system is PKB. The test is described as follows: IGF1-induced PKB activation in MCF7 cells (western blot). In kind it is cell-based, human. The note with it: 10 μM, 48 hr, 50 ng/ml IGF-1 5 minutes, FIG. 3. Here is the method: (§2) Tyrosine autophosphorylation of the β-subunit of IGF-1R as well as downstream signaling induced by IGF-1R were assayed in human breast cancer MCF7 cells and in melanoma A375 cells. Cells were seeded in 6-well plates (250,000 A375 cells/well and 300,000 MCF7 cells/well) and 24 hours later medium was replaced by serum-free medium (RPMI supplemented with 100 units/ml penicillin and 100 μg/ml streptomycin). MCF7 cells were exposed for 48 hr to compound 3 at 10 μM concentration, and then stimulated for 5 minutes with 50 ng/ml IGF-1, washed twice with PBS and lysed by boiling sample buffer (10% glycerol, 50 mM Tris-HCl, pH 6.8, 3% SDS, and 5% (3-mercaptoethanol). Equal amounts of protein per lane were separated by 8% SDS-PAGE and transferred to a nitrocellulose membrane (Sartorius AG). Phosphorylated proteins were immunoblotted with anti-phosphoIGF-1R (pIGF-1R), anti-phosphotyrosine-IRS1 (pY-IRS I) and anti-phospho(T308)Akt (pPKB) antibodies. Detection was performed with horseradish peroxidase-conjugated secondary antibody using the ECL system. Blots were then stripped of antibodies, blocked with TBST with 5% low fat milk and re-probed with antibodies detecting both the phosphorylated and the non-phosphorylated corresponding proteins e.g. IGF-1Rβ, IRS1 and PKB.

Test [4] concerns IRS1. In words: IRS1 levels and serine phosphorylation in MCF7 cells (western blot, time course). In kind it is cell-based, human. To be noted: 10 μM. Here is the method:
as §2, with “PKB. […]” for “PKB.”
For orientation: Immunoblotting shows a protein as a band on a membrane.

The subject of test [5] is Akt/PKB pathway. The test is described as follows: IGF1-induced Akt/PKB activation in A375 cells (Example 5). It is filed as cell-based, human. The method, then:
The effect of compound 5 on IRS1 & IRS2 levels and its effect on IGF1-induced Akt/PKB activation and apoptosis in melanoma A375 cells were tested. Cells were seeded in 6-well plates (150,000 A375 cells/well) and 24 hours later medium was replaced by serum-free medium (RPMI supplemented with 100 units/ml penicillin and 100 μg/ml streptomycin), […], and then stimulated for 5 minutes with 50 ng/ml IGF-1, washed twice with PBS and lysed by boiling sample buffer (10% glycerol, 50 mM Tris-HCl, pH 6.8, 3% SDS, and 5% β-mercaptoethanol). Equal amounts of protein per lane were separated by 8% SDS-PAGE and transferred to a nitrocellulose membrane (Sartorius AG). To detect the inhibition of the Akt/PKB activation, phosphorylated proteins were immunoblotted with anti-phospho(T308)Akt (pT308-PKB) and anti-phospho-Tuberin/TSC2 (pTuberin) antibodies. To visualize cell death induced by compound 5, the intact and the cleaved PARP were immunoblotted with anti-PARP antibody. The changes in the levels of IRS1 and IRS2 were detected with specific antibodies. Detection was performed with horseradish peroxidase-conjugated secondary antibody using the ECL system. Blots were then stripped of antibodies, blocked with TBST with 5% low fat milk and re-probed with antibodies detecting both the phosphorylated and the non-phosphorylated Akt/PKB. […]

Consider `O=c1c(O)cc2cnc(/C=C/c3cc(O)c(O)c(Br)c3)sc-2c1O` [Compound 3], for which the half-inhibitory concentration (IC50) is 2000 nM in test [1] and 3800 nM in test [2]. Also, in test [3], the “IGF1-induced activation of the downstream signaling component PKB” value is recorded as “significantly inhibited”. In addition, the “levels of IRS1” value in test [4] (48 hr, FIG. 3) is “significant decrease”. The “time course of effect on IRS1 phosphorylation and levels” value in test [4] (various time periods, FIG. 5) was “elimination of IRS1 induced by compound 3 is subsequent to IRS1 serine phosphorylation”.

As for `O=c1c(O)cc2cnc(/C=C/c3ccc(O)c(O)c3Br)sc-2c1O` [Compound 5], in test [5] (3 μM, 48 hr, 50 ng/ml IGF-1 5 minutes, FIG. 6B), the “IGF1-induced activation of the Akt/PKB pathway” value is “blocked the IGF1-induced activation of the Akt/PKB pathway”. Besides, in test [5] (5 μM for 4 hr, washed, 24 hr after washout, FIG. 6C), the “IGF1-induced activation of PKB/Akt after washout” value is listed as “blocked”.
